Legend:
Assay in all cases: Test C greenhouse herbicide test, pre- and postemergence
Type in all cases: in vivo
[1] = system: morningglory (Ipomoea coccinea)
Excerpt: (§1) Seeds of plant species selected from blackgrass (Alopecurus myosuroides), ryegrass, Italian (Italian ryegrass, Lolium multiflorum), wheat (winter wheat, Triticum aestivum), galium (catchweed bedstraw, Galium aparine), corn (Zea mays), large crabgrass, large (large crabgrass, Digitaria sanguinalis), foxtail, giant (giant foxtail, Setaria faberii), johnsongrass (Sorghum halepense), lambsquarters (Chenopodium album), morningglory (Ipomoea coccinea), nutsedge, yellow (yellow nutsedge, Cyperus esculentus), pigweed (Amaranthus retroflexus), ragweed (common ragweed, Ambrosia elatior), soybean (Glycine max), barnyardgrass (Echinochloa crus-galli), oilseed rape (Brassica napus), waterhemp (common waterhemp, Amaranthus rudis), and velvetleaf (Abutilon theophrasti) were planted into a blend of loam soil and sand and treated preemergence with test chemicals formulated in a non-phytotoxic solvent mixture which included a surfactant.
(§2) At the same time, plants selected from these crop and weed species and also chickweed (common chickweed, Stellaria media), kochia (Kochia scoparia), and oat, wild (wild oat, Avena fatua), were planted in pots containing Redi-Earth® planting medium (Scotts Company, 14111 Scottslawn Road, Marysville, Ohio 43041) comprising spaghnum peat moss, vermiculite, wetting agent and starter nutrients and treated with postemergence applications of test chemicals formulated in the same manner. Plants ranged in height from 2 to 18 cm (1- to 4-leaf stage) for postemergence treatments. Treated plants and controls were maintained in a greenhouse for 13 to 15 d, after which time all species were compared to controls and visually evaluated. Plant response ratings, summarized in Table C, are based on a scale of 0 to 100 where 0 is no effect and 100 is complete control. A dash (-) response means no test result.

soybean (Glycine max) = system: soybean (Glycine max)
Excerpt: as §1, §2

corn (Zea mays) = system: corn (Zea mays)
Excerpt: as §1, §2

[2] = system: lambsquarters (Chenopodium album)
Excerpt: as §1, §2

[3] = system: pigweed (Amaranthus retroflexus)
Excerpt: as §1, §2

[4] = system: blackgrass (Alopecurus myosuroides)
Excerpt: as §1, §2

[5] = system: velvetleaf (Abutilon theophrasti)
Excerpt: as §1, §2

[6] = system: nutsedge, yellow (yellow nutsedge, Cyperus esculentus)
Excerpt: as §1, §2

[7] = system: barnyardgrass (Echinochloa crus-galli)
Excerpt: as §1, §2

[8] = system: johnsongrass (Sorghum halepense)
Excerpt: as §1, §2

[9] = system: ryegrass, Italian (Italian ryegrass, Lolium multiflorum)
Excerpt: as §1, §2

[10] = system: crabgrass, large (large crabgrass, Digitaria sanguinalis)
Excerpt: as §1, §2

[11] = system: waterhemp (common waterhemp, Amaranthus rudis)
Excerpt: as §1, §2

[12] = system: ragweed (common ragweed, Ambrosia elatior)
Excerpt: as §1, §2

[13] = system: wheat (winter wheat, Triticum aestivum)
Excerpt: as §1, §2

[14] = Postemergence, 31 g ai/ha, 0 to 100 scale (0 no effect, 100 complete control)
[15] = Postemergence, 125 g ai/ha, scale 0 to 100, 0 is no effect, 100 is complete control
[16] = Postemergence, 250 g ai/ha, scale 0 to 100, 0 no effect, 100 complete control, 13 to 15 d
[17] = Preemergence, 31 g ai/ha, scale 0 to 100, 0 is no effect, 100 is complete control
[18] = Preemergence, 62 g ai/ha, scale 0 to 100, 0 is no effect, 100 is complete control
[19] = Preemergence, 125 g ai/ha, scale 0 to 100, 0 is no effect, 100 is complete control
[20] = Preemergence, 250 g ai/ha, scale 0 to 100, 0 no effect, 100 complete control
[21] = postemergence, 62 g ai/ha, scale 0 to 100, 0 no effect, 100 complete control

Cc1ccc2ccccc2c1-c1c(O)c(Br)nn(C)c1=O [Compound 23]
Morningglory plant response rating [1, 14]: 100
Plant response rating, Morningglory [1, 15]: 100
Plant response rating, Morningglory [1, 16]: 100
Plant response rating, Morningglory [1, 17]: 85
Plant response rating, Morningglory [1, 18]: 90
Plant response rating, Morningglory [1, 19]: 95
Morningglory plant response rating [1, 20]: 98
Morningglory plant response rating [1, 21]: 100
Soybean plant response rating (soybean (Glycine max); [14]): 5
Plant response rating, Soybean (soybean (Glycine max); [15]): 10
Plant response rating, Soybean (soybean (Glycine max); [16]): 15
Plant response rating, Soybean (soybean (Glycine max); [18]): 0
Plant response rating, Soybean (soybean (Glycine max); [19]): 5
Soybean plant response rating (soybean (Glycine max); [20]): 55
Soybean plant response rating (soybean (Glycine max); [21]): 10
Corn plant response rating (corn (Zea mays); [14]): 10
Plant response rating, Corn (corn (Zea mays); [15]): 10
Plant response rating, Corn (corn (Zea mays); [16]): 25
Plant response rating, Corn (corn (Zea mays); [17]): 0
Plant response rating, Corn (corn (Zea mays); [18]): 0
Plant response rating, Corn (corn (Zea mays); [19]): 30
Corn plant response rating (corn (Zea mays); [20]): 65
Corn plant response rating (corn (Zea mays); [21]): 30
Lambsquarters plant response rating [2, 14]: 85
Plant response rating, Lambsquarters [2, 15]: 95
Plant response rating, Lambsquarters [2, 16]: 98
Plant response rating, Lambsquarters [2, 17]: 85
Plant response rating, Lambsquarters [2, 18]: 85
Plant response rating, Lambsquarters [2, 19]: 95
Lambsquarters plant response rating [2, 20]: 95
Lambsquarters plant response rating [2, 21]: 95
Pigweed plant response rating [3, 14]: 90
Plant response rating, Pigweed [3, 15]: 98
Plant response rating, Pigweed [3, 16]: 98
Plant response rating, Pigweed [3, 17]: 100
Plant response rating, Pigweed [3, 18]: 100
Plant response rating, Pigweed [3, 19]: 100
Pigweed plant response rating [3, 20]: 100
Pigweed plant response rating [3, 21]: 98
Blackgrass plant response rating [4, 14]: 50
Plant response rating, Blackgrass [4, 15]: 70
Plant response rating, Blackgrass [4, 16]: 85
Plant response rating, Blackgrass [4, 17]: 45
Plant response rating, Blackgrass [4, 18]: 85
Plant response rating, Blackgrass [4, 19]: 90
Blackgrass plant response rating [4, 20]: 90
Blackgrass plant response rating [4, 21]: 60
Velvetleaf plant response rating [5, 14]: 70
Plant response rating, Velvetleaf [5, 15]: 85
Plant response rating, Velvetleaf [5, 16]: 90
Plant response rating, Velvetleaf [5, 18]: 90
Plant response rating, Velvetleaf [5, 19]: 100
Velvetleaf plant response rating [5, 20]: 100
Velvetleaf plant response rating [5, 21]: 85
Nutsedge, Yellow plant response rating [6, 14]: 60
Plant response rating, Nutsedge, Yellow [6, 15]: 85
Plant response rating, Nutsedge, Yellow [6, 16]: 85
Plant response rating, Nutsedge, Yellow [6, 17]: 40
Plant response rating, Nutsedge, Yellow [6, 18]: 90
Plant response rating, Nutsedge, Yellow [6, 19]: 85
Nutsedge, Yellow plant response rating [6, 20]: 90
Nutsedge, Yellow plant response rating [6, 21]: 70
Barnyardgrass plant response rating [7, 14]: 40
Plant response rating, Barnyardgrass [7, 15]: 75
Plant response rating, Barnyardgrass [7, 16]: 85
Plant response rating, Barnyardgrass [7, 17]: 10
Plant response rating, Barnyardgrass [7, 18]: 85
Plant response rating, Barnyardgrass [7, 19]: 85
Barnyardgrass plant response rating [7, 20]: 85
Barnyardgrass plant response rating [7, 21]: 60
Johnsongrass plant response rating [8, 14]: 5
Plant response rating, Johnsongrass [8, 15]: 10
Plant response rating, Johnsongrass [8, 16]: 40
Plant response rating, Johnsongrass [8, 17]: 5
Plant response rating, Johnsongrass [8, 18]: 5
Plant response rating, Johnsongrass [8, 19]: 35
Johnsongrass plant response rating [8, 20]: 35
Johnsongrass plant response rating [8, 21]: 5
Ryegrass, Italian plant response rating [9, 14]: 85
Plant response rating, Ryegrass, Italian [9, 15]: 95
Plant response rating, Ryegrass, Italian [9, 16]: 95
Plant response rating, Ryegrass, Italian [9, 17]: 85
Plant response rating, Ryegrass, Italian [9, 18]: 90
Plant response rating, Ryegrass, Italian [9, 19]: 95
Ryegrass, Italian plant response rating [9, 20]: 95
Ryegrass, Italian plant response rating [9, 21]: 90
Crabgrass, Large plant response rating [10, 14]: 5
Plant response rating, Crabgrass, Large [10, 15]: 35
Plant response rating, Crabgrass, Large [10, 16]: 45
Plant response rating, Crabgrass, Large [10, 17]: 5
Plant response rating, Crabgrass, Large [10, 18]: 45
Plant response rating, Crabgrass, Large [10, 19]: 75
Crabgrass, Large plant response rating [10, 20]: 95
Crabgrass, Large plant response rating [10, 21]: 20
Waterhemp plant response rating [11, 14]: 80
Plant response rating, Waterhemp [11, 15]: 85
Plant response rating, Waterhemp [11, 16]: 98
Plant response rating, Waterhemp [11, 18]: 100
Plant response rating, Waterhemp [11, 19]: 100
Waterhemp plant response rating [11, 20]: 100
Waterhemp plant response rating [11, 21]: 55
Ragweed plant response rating [12, 14]: 85
Plant response rating, Ragweed [12, 15]: 95
Plant response rating, Ragweed [12, 16]: 98
Plant response rating, Ragweed [12, 17]: 85
Plant response rating, Ragweed [12, 18]: 85
Plant response rating, Ragweed [12, 19]: 95
Ragweed plant response rating [12, 20]: 90
Ragweed plant response rating [12, 21]: 90
Wheat plant response rating [13, 14]: 10
Plant response rating, Wheat [13, 15]: 35
Plant response rating, Wheat [13, 16]: 30
Plant response rating, Wheat [13, 18]: 85
Plant response rating, Wheat [13, 19]: 90
Wheat plant response rating [13, 20]: 90
Wheat plant response rating [13, 21]: 30

From patent publication US10597388B2, “Pyridazinone herbicides” (FMC CORPORATION, priority 2014, dated 2020)
